16 compounds from patent US6656911B2, “Serine protease inhibitors” (Cortech, Inc., priority 1994, dated 2003) can be followed below.

Where two headings read alike, the source gives them in different places.

In series [1] the target is T1, elastase derived from human sputum (HSE) (Homo sapiens, UniProt P08246).
T1 construct: prepared from commercially available HSE (875 U/mg protein, SE-563, Elastin Product Co., Inc., Missouri, USA); purchased Elastin Product Co., Inc., Missouri, USA SE-563; host or cells: human sputum (natural enzyme)
T1 sequence (P08246 30-247 limits assumed): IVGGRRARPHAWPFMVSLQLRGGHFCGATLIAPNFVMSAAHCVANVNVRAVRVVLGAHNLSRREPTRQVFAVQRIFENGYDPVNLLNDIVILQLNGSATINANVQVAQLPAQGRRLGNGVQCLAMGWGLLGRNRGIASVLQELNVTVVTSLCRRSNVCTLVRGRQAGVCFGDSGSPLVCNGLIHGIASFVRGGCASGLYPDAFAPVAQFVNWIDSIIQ
Put plainly: In vitro inhibition of elastase (ONO-PO series). The series is classed as biochemical. Conditions: substrate N-methoxysuccinyl-Ala-Ala-Pro-Val-p-nitroaniline, 37° C., pH 8.0, IC50 converted to Ki by Dixson plot.

Series [2] has as its target T2, human neutrophil elastase (HNE) (Homo sapiens, UniProt P08246).
T2 sequence (P08246 30-267): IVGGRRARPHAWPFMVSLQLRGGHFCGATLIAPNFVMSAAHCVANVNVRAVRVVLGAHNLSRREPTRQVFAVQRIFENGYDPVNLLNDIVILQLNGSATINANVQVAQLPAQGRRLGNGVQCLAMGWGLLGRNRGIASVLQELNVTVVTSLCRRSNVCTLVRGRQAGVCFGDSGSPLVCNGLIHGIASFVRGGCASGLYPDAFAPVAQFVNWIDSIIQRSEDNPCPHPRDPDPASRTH
Put plainly: HNE Ki of CE compounds, tested as described in WO 96/16080. The series is classed as biochemical.

The test system of series [3] is polymorphoneucleocyte (PMN). Put plainly: Extracellular Matrix (ECM) degradation assay. The series is classed as cell-based. Conditions: PMN's stimulated with opsonized zymosan, 4 hr at 37° C.; for inhibition at 1 µM / ECM DATA % Inhibition 1 uM: 1 uM inhibitor; for inhibition at 5 µM / ECM DATA % Inhibition 5 uM: 5 uM inhibitor. Put shortly:
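Radiolabelled ([35S]sulfate/[3H]proline) ECM from R22 rat smooth muscle cells preincubated 30 min with 1 or 5 uM inhibitor in HBSS (<2% DMSO). PMNs (5×10^5/well) stimulated with serum-opsonized zymosan (10 particles/PMN), 4 h at 37 °C. Degradation = released over total ECM counts, minus PMN-free basal release.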

A short description of series [4]: Blood level screening after oral dose. The series is classed as in vivo, Sprague-Dawley rats. The settings on record: rat, oral gavage 10 mg/kg; for concentration at 1 h / concentration at 3 h / concentration at 6 h: male, Sprague-Dawley, plasma; for concentration at 1 h: read-out: Plasma Levels (μM) 1 hr; for concentration at 3 h: read-out: Plasma Levels (μM) 3 hr; for concentration at 6 h: read-out: Plasma Levels (μM) 6 hr. An outline of the steps:
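Unfasted male Sprague-Dawley rats received 10 mg/kg by oral gavage in PEG, PEG-400 or PEG:H2O:EtOH. Plasma was solvent-extracted and the inhibitor measured by HPLC or LC/MS.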

On to `CC(C)[C@H](NC(=O)Cn1c(-c2ccc(F)cc2)ncc(NC(=O)OCc2ccccc2)c1=O)C(=O)c1nnc(C(C)(C)c2ccccc2)o1` [ONO-PO-690, 2-[5-(Benzyloxycarbonyl)amino-6-oxo-2-(4-fluorophenyl)-1,6-dihydro-1-pyrimidinyl]-N-[1-(2-[5-(α,α-dimethylbenzyl)-1,3,4-oxadiazolyl]carbonyl)-2-(S)-methylpropyl]acetamide], for which affinity in series [1] was put at a Ki of 78.3 nM.
`CC(C)[C@H](NC(=O)Cn1c(-c2ccc(F)cc2)ncc(N)c1=O)C(=O)c1nnc(-c2cccnc2)o1` [ONO-PO-695, 2-[5-Amino-6-oxo-2-(4-fluorophenyl)-1,6-dihydro-1-pyrimidinyl]-N-[1-(2-[5-(3-pyridyl)-1,3,4-oxadiazolyl]carbonyl)-2-(S)-methylpropyl]acetamide] came in with a Ki in series [1] of 13.9 nM.
Same read-out and setting: for `CC(C)[C@H](NC(=O)Cn1c(-c2ccccc2)nccc1=O)C(=O)c1nnc(C(C)(C)c2ccccc2)o1` [ONO-PO-731, 2-[6-Oxo-2-phenyl-1,6-dihydro-1-pyrimidinyl]-N-[1-(2-[5-α,α-dimethylbenzyl-1,3,4-oxadiazolyl]carbonyl)-2-(S)-methylpropyl]acetamide] the value was 4.02 nM.
In the case of `Cc1cccc(Cc2nnc(C(=O)C(NC(=O)CN3C(=O)C(N)N=C(c4ccc(Cl)cc4)c4ccccc43)C(C)C)o2)c1` [CE2224, (R,S)-3-Amino-2-oxo-5-(4-chlorophenyl)-1,4-benzodiazepine-N-[1-(2-[5-(3-methylbenzyl)-1,3,4-oxadiazolyl]carbonyl)-2-(R,S)-methylpropyl]acetamide], in series [2] (read-out: HNE Ki), the Ki amounted to 1 nM. In series [3], this compound came in with an inhibition at 1 µM of 43.2% and an inhibition at 5 µM of 66.8%. Further, in series [4], the concentration at 1 h was 1.84 µM, the concentration at 3 h was 1.94 µM and the concentration at 6 h was found to be 1.96 µM.
Turning to `Cc1cccc(Cc2nnc(C(=O)[C@@H](NC(=O)CN3C(=O)NC(c4ccc(N(C)C)cc4)C3=O)C(C)C)o2)c1` (stereo partly shown) [CE2194], in series [2] (read-out: HNE Ki), the Ki worked out at 2.4 nM. In series [3], the “ECM DATA % Inhibition 1 uM” value was found to be 41% and the “ECM DATA % Inhibition 5 uM” value was determined as 58.7%. Further, in series [4], the “Plasma Levels (μM) 1 hr” value was 1.11 µM and the “Plasma Levels (μM) 3 hr” value worked out at 0.553 µM.
Regarding `Cc1cccc(Cc2nnc(C(=O)[C@@H](NC(=O)CN3C(=O)CN=C(c4ccccc4)c4ccccc43)C(C)C)o2)c1` [CE2157], the Ki in series [2] (read-out: HNE Ki) amounted to 1.4 nM. For the same compound, in series [3], at 1 µM the inhibition was 9.96% and the inhibition at 5 µM turned out to be 13.4%. Besides, the concentration at 3 h in series [4] was 3.81 µM.
On to `Cc1cccc(Cc2nnc(C(=O)[C@@H](NC(=O)CN3C(=O)NC(c4ccccc4)(c4ccccc4)C3=O)C(C)C)o2)c1` [CE2252, 4,4-Diphenyl-2,5-imidazolidinedione-N-[1-(2-[5-(3-methylbenzyl)-1,3,4-oxadiazolyl]carbonyl)-2-(S)-methylpropyl]acetamide], for which the Ki in series [2] (read-out: HNE Ki) was 1.9 nM. In addition, in series [3], the “ECM DATA % Inhibition 1 uM” value worked out at 45.4% and the “ECM DATA % Inhibition 5 uM” value turned out to be 65.2%. For the same compound, in series [4], the “Plasma Levels (μM) 1 hr” value was 0.114 µM, the “Plasma Levels (μM) 3 hr” value is 0.188 µM and the “Plasma Levels (μM) 6 hr” value amounted to 0.1 µM.
`Cc1cccc(Cc2nnc(C(=O)[C@@H](NC(=O)CN3C(=O)N[C@@H](C(C)C)C3=O)C(C)C)o2)c1` [CE2240, 4-(S)-(2-Isopropyl)-2,5-imidazolidinedione-N-[1-(2-[5-(3-methylbenzyl)-1,3,4-oxadiazolyl]carbonyl)-2-(S)-methylpropyl]acetamide]: the Ki in series [2] (read-out: HNE Ki) turned out to be 30 nM. In addition, in series [3], the “ECM DATA % Inhibition 1 uM” value was 16.8% and the “ECM DATA % Inhibition 5 uM” value is 13.5%. Besides, in series [4], the “Plasma Levels (μM) 1 hr” value came out at 1.12 µM, the “Plasma Levels (μM) 3 hr” value stood at 0.5 µM and the “Plasma Levels (μM) 6 hr” value came out at 0.29 µM.
Regarding `Cc1cccc(Cc2nnc(C(=O)[C@@H](NC(=O)[C@@H]3CCCN3C(=O)[C@@H](NS(C)(=O)=O)C(C)C)C(C)C)o2)c1` [CE2163, Methylsulfonyl-L-valyl-N-[1-(2-[5-(3-methylbenzyl)-1,3,4-oxadiazolyl]carbonyl)-2-(S)-methylpropyl]-L-prolinamide], in series [2] (read-out: HNE Ki), the inhibition constant Ki amounted to 0.75 nM. Moreover, in series [3], the inhibition at 1 µM stood at 54.7% and the inhibition at 5 µM was 64%. Also, the concentration at 3 h in series [4] came to 0.316 µM.
As for `Cc1cccc(Cc2nnc(C(=O)[C@@H](NC(=O)CN3C(=O)CN=C(c4ccc5c(c4)OCO5)c4ccccc43)C(C)C)o2)c1` [CE2248], in series [2] (read-out: HNE Ki), the Ki worked out at 3.1 nM. In addition, in series [3], the “ECM DATA % Inhibition 1 uM” value is given as 39.4% and the “ECM DATA % Inhibition 5 uM” value was 63.2%. Moreover, in series [4], the “Plasma Levels (μM) 1 hr” value is 1.65 µM, the “Plasma Levels (μM) 3 hr” value turned out to be 1.58 µM and the “Plasma Levels (μM) 6 hr” value is 1.22 µM.
For `Cc1cccc(Cc2nnc(C(=O)C(NC(=O)C3Cc4cccc5c4N3C(=O)C(N)CC5)C(C)C)o2)c1` [CE2130, (2S,5S)-5-Amino-1,2,4,5,6,7-hexahydroazepino-[3,2,1]-indole-4-one-carbonyl-N-[1-(2-[5-(3-methylbenzyl)-1,3,4-oxadiazolyl]carbonyl)-(R,S)-2-methylpropyl]amide], the inhibition constant Ki in series [2] (read-out: HNE Ki) was determined as 2.1 nM. For the same compound, in series [3], the inhibition at 1 µM came out at 16.3% and the inhibition at 5 µM was found to be 29%. Besides, the concentration at 3 h in series [4] amounted to 0.162 µM.
Consider `Cc1cccc(Cc2nnc(C(=O)[C@@H](NC(=O)CN3C(=O)CN=C(c4ccccn4)c4ccccc43)C(C)C)o2)c1` [CE2217, 2-Oxo-5-(2-pyridyl)-1,4-benzodiazepine-N-[1-(2-[5-(3-methylbenzyl)-1,3,4-oxadiazolyl]carbonyl)-2-(S)-methylpropyl]acetamide], for which, in series [2] (HNE Ki (nM)), the affinity, expressed as Ki, was 5.5 nM. In series [3], this compound displayed an inhibition at 1 µM of 28.1% and an inhibition at 5 µM of 41.2%. Moreover, in series [4], the concentration at 1 h amounted to 1.99 µM and the concentration at 3 h is 0.521 µM.
Turning to `Cc1cccc(Cc2nnc(C(=O)[C@@H](NC(=O)CN3C(=O)N[C@H](Cc4c[nH]c5ccccc45)C3=O)C(C)C)o2)c1` [CE2243, 4-(R)-(3-Indolemethylene)-2,5-imidazolidinedione-N-[1-(2-[5-(3-methylbenzyl)-1,3,4-oxadiazolyl]carbonyl)-2-(S)-methylpropyl]acetamide], in series [2] (read-out: HNE Ki), the inhibitory constant (Ki) worked out at 11 nM. For the same compound, in series [3], the “ECM DATA % Inhibition 1 uM” value was determined as 48% and the “ECM DATA % Inhibition 5 uM” value amounted to 54.9%. In series [4], the “Plasma Levels (μM) 1 hr” value was 2.801 µM, the “Plasma Levels (μM) 3 hr” value was found to be 2.104 µM and the “Plasma Levels (μM) 6 hr” value worked out at 1.598 µM.
Turning to `Cc1cccc(Cc2nnc(C(=O)[C@@H](NC(=O)CN3C(=O)NC(C)(c4ccccn4)C3=O)C(C)C)o2)c1` (stereo partly drawn) [CE2216, [4-(R,S)-(2-Pyridyl)-4-(R,S)-methyl]-2,5-imidazolidinedione-N-[1-(2-[5-(3-methylbenzyl)-1,3,4-oxadiazolyl]carbonyl)-2-(S)-methylpropyl]acetamide], the inhibition constant Ki in series [2] (read-out: HNE Ki) amounted to 4.1 nM. In series [3], the “ECM DATA % Inhibition 1 uM” value is recorded as 32.1% and the “ECM DATA % Inhibition 5 uM” value is on record as 37.15%. For the same compound, in series [4], the “Plasma Levels (μM) 1 hr” value worked out at 0.77 µM, the “Plasma Levels (μM) 3 hr” value was 0.47 µM and the “Plasma Levels (μM) 6 hr” value was found to be 0.25 µM.
`Cc1cccc(Cc2nnc(C(=O)C(NC(=O)CN3C(=O)NC(c4ccccc4)C3=O)C(C)C)o2)c1` [CE2149, 5-(R,S)-Phenyl-2,4-imidazolidinedione-N-[1-(2-[5-(3-methylbenzyl)-1,3,4-oxadiazolyl]carbonyl)-2-(S)-methylpropyl]acetamide]: the Ki in series [2] (read-out: HNE Ki) was determined as 0.28 nM. In series [3], this compound returned an inhibition at 1 µM of 51.3% and an inhibition at 5 µM of 55.9%. In series [4], the concentration at 1 h amounted to 0 µM, the concentration at 3 h is 0 µM and the concentration at 6 h came to 0 µM.
Take `COC(=O)CCC[C@H]1NC(=O)N(CC(=O)N[C@H](C(=O)c2nnc(Cc3cccc(C)c3)o2)C(C)C)C1=O` [CE2249, 4-(R)-(3-Carbomethoxy)propyl-2,5-imidazolidinedione-N-[1-(2-[5-(3-methylbenzyl)-1,3,4-oxadiazolyl]carbonyl)-2-(S)-methylpropyl]acetamide]: the Ki in series [2] (read-out: HNE Ki) turned out to be 13 nM. Besides, in series [3], the “ECM DATA % Inhibition 1 uM” value came to 22.4% and the “ECM DATA % Inhibition 5 uM” value stood at 42.4%. Further, in series [4], the “Plasma Levels (μM) 1 hr” value was determined as 1.179 µM, the “Plasma Levels (μM) 3 hr” value was 0.704 µM and the “Plasma Levels (μM) 6 hr” value turned out to be 0.213 µM.

A word on the Ki: it is a measure of affinity in units of concentration, obtained from inhibition or displacement. In general, inhibition refers to the change of the read-out against control, counted positive when it falls. A lower inhibition goes with a response near the control.
